Results on three compounds are retold here after patent publication US20110173718A1, “HERBICIDE TOLERANT PLANTS” (SYNGENTA CROP PROTECTION, INC., priority 2008, published 2011).

Where two headings read alike, the source gives them in different places. Marks after values point to notes of the source that are not given here.

The target in one experiment is T1, Arabidopsis HST (Arabidopsis thaliana, UniProt Q1ACB3).
T1 construct: GST (factor Xa cleavage site) (N); made in house; host or cells: Sf9 insect cells (baculovirus, pAcG3X), membrane fraction
T1 sequence (Q1ACB3 70-386): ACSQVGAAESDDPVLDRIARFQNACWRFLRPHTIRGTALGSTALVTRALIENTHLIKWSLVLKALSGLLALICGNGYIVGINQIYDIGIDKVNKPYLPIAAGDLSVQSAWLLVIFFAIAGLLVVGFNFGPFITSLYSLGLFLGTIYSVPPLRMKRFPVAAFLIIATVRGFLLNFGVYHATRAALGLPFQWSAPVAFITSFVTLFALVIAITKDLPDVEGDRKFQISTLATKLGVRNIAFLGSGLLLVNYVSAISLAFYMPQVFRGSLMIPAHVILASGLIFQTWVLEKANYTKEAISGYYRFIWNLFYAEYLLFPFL
Put plainly: HST total extraction (non TLC) assay, recombinant Arabidopsis HST from insect cells. The experiment is classed as biochemical.

For a further experiment, the target named is T2, Chlamydomonas HST (Chlamydomonas reinhardtii, UniProt A1JHN0).
T2 construct: GST (N); made in house; host or cells: E. coli (BL21A1 / BL21DE3), membrane fraction
T2 sequence (A1JHN0 51-370): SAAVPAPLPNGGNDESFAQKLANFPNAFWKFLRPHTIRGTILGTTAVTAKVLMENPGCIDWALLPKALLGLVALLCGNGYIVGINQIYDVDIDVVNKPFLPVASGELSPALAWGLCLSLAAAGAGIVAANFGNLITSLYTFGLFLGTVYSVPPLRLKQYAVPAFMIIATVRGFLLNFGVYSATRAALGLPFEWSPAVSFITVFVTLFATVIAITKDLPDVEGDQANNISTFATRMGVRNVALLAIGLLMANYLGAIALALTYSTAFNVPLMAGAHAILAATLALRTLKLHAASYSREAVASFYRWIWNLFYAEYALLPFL
Briefly: HST assay (TLC, MFBQ formed), recombinant Chlamydomonas HST in E. coli membranes. In kind it is biochemical. The following applies: TLC, estimated amount of MFBQ formed, relative to controls. As to the method:
Alternatively, Arabidopsis and Chlamydomonas mature HST coding sequences are cloned as GST N-terminal fusion enzymes and expressed in E. coli.
E. coli. BL21A1 cells expressing mature Arabidopsis or Chlamydonionas HST as a GST N-terminal fusion proteins are grown, harvested, broken and membrane fractions expressing HST produced.
For example, 1 ng of recombinant DNA is used to transform BL21DE3 cells to obtain a plateful of individual colonies. One of these colonies is picked and used to inoculate an overnight culture of 100 ml of Luria Broth (LB) supplemented with 50 ug/ml of kanamycin at final concentration, grown at 37° C. with shaking at 220 rpm. Next morning, 10 mls of the overnight culture is used to inoculate 11 of fresh sterile LB supplemented with 50 ug/ml of kanamycin at final concentration, grown at 37° C. with shaking at 220 rpm until the OD reached 0.6 at 600 nm, induced with the addition of 0.1 mM IPTG and left to induce at 15° C. overnight. The cells are harvested by centrifugation at 4600 rpm for 10 min at 4° C. and the pellet stored at −80° C. […] E. coli cell pellet is then resuspended in 25 ml of 50 mM Tris, pH 7.5 supplemented with Roche EDTA-free protease inhibitor tablet (one tablet in 200 mls of buffer). 10 ml of cells are lysed by sonication on ice. The resultant lysed cells are centrifuged at 3000 g for 10 min to pellet the cell nuclei/debris etc. 10 mls of supernatant is aspirated and centrifuged at 150,000 g for 60 min at 4° C. The pellet containing the membranes is resuspended in 2 ml of the above buffer. These samples are stored as 100 ul aliquots at −80° C., after being diluted with addition of glycerol to 50% v/v.
Prenyltransferase (HST) activities are measured by determining the prenylation rates of [U—^14C]homogentisate using farnesyl diphosphate (FDP) as prenyl donor. ^14C homogentisate is prepared from ^14C tyrosine using L amino acid oxidase and HPPD. For inhibitor testing, compounds are dissolved in dimethylsulfoxide (DMSO). DMSO added at up to 2% v/v has no effect on assays. Control assays contain DMSO at the same concentration as in inhibitor containing assays.
The recombinant Chlamydomonas HST expressed in E. coli membranes is assayed in standard reaction mixtures with 200 μM FDP and 100 μM ^14C-homogentisate (40 dpm/pmol) in 50 mM Tricine-NaOH pH 8.5, 20 mM MgCl2. Assays are started with the addition of enzyme and run for ˜20 min at 28° C.
Recombinant Arabidopsis and Rice HSTs are expressed in insect cells. Assays are run as for Chlamydomonas HST except that assay temperature is 27° C. Assays are stopped with 300 ul of solvent mix (1:2, Chloroform:Methanol) and 100 ul of 0.5% NaCl, agitated/mixed and spun at 13,000 rpm in a benchtop eppendorf centrifuge for 5 minutes. 80 ul of the lower phase extract is loaded onto a TLC plate (silica Gel 60, 20 cm×20 cm) FLA3000 system and run for 35 minutes in dichloromethane. The radioactivity is quantified using a Fuji Phosphoimager and band intensity integrated as quantitative measure of product amount. The bands corresponding to oxidised and reduced 2-methyl-6-farnesyl-1,4-benzoquinol (MFBQ) are identified and the total of the two (oxidised and reduced) band intensities is calculated in order to estimate the total amount of MFBQ product formation. Specific activities of 8 pmol MFBQ min^−1 mg^−1 protein (23 pmol) and 7 pmol MFBQ min^−1 mg^−1 protein (14 pmol) are, for example, estimated for the GST-fusion truncated Arabidopsis HST gene (SEQ ID # 3) expressed in membranes from insect cells 4 days and 5 days after transfection respectively. Similar results are noted from past literature on E. coli expressed Arabidopsis HST. Activity from the insect cell expressed GST-fusion truncated rice HST (SEQ ID# 4) is similar. Expression of the non-truncated HST coding sequences as GST fusions also gives HST activity. […]

For experiment [1], the system named is weeds. Briefly: Glasshouse weed control, HST inhibitors alone and with A22, pre-emergence. The experiment is classed as in vivo. The following applies: 336 h, 14 DAT; for pest or weed control at 15.625 g/ha: HST inhibitor rate 15.625 g/ha; for pest or weed control at 62.5 g/ha: HST inhibitor rate 62.5 g/ha; for pest or weed control at 250 g/ha: HST inhibitor rate 250 g/ha. The essentials:
(§1)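 Weeds grown in glasshouse trays (24-27 C day, 18-21 C night, ~15 h photoperiod) and track-sprayed in 0.2% X77 at […], pre-emergence or post-emergence at about 7-12 d. HPPD inhibitor A22 applied at 2 g/ha alone or mixed with HST herbicides. Damage scored 0–100% at 14 DAT; synergy calculated by Colby formula.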

Experiment [2] relates to weeds. Put plainly: Glasshouse weed control, HST inhibitors alone and with A22, post-emergence. The experiment is classed as in vivo. The following applies: 336 h, 14 DAT, single replicate, read-out: % control score, Obs; for pest or weed control at 15.625 g/ha: 15.625 g/ha alone; for pest or weed control at 62.5 g/ha: 62.5 g/ha alone; for pest or weed control at 250 g/ha: 250 g/ha alone. The essentials:
as §1

The mark [3] stands for this setting: 3 point dose curves only conducted at 50 μM HPP.
[4] abbreviates: BRAPL, read-out: BRAPL Obs, % control score.
Where [5] appears, read: PANMI, read-out: PANMI Obs, % control score.
Where [6] appears, read: SIDSP, read-out: SIDSP Obs, % control score.
[7] abbreviates: Digitaria sanguinalis, DIGSA, read-out: DIGSA Obs, % control score.
Setting [8] is: Echinochloa crus-galli, ECHCG, read-out: ECHCG Obs, % control score.
[9] abbreviates: Setaria faberi, SETFA, read-out: SETFA Obs, % control score.

For `Cn1c(=O)c(-c2c(F)ccc(F)c2Cl)c(O)c2nccnc21` [Compound 2.4], on Arabidopsis HST (setting [3]), the “Estimated IC50 (ppm)” value is 211* ppm. Besides, on Chlamydomonas HST, the “Chlamydomonas. HST % I at 10 ppm” value is listed as 5% and the “Chlamydomonas. HST % I at 100 ppm” value is listed as 45%.
As to `Cn1c(=O)c(-c2c(Cl)cccc2C(F)(F)F)c(O)c2nccnc21` [Compound 2.16], on Arabidopsis HST, the “Estimated IC50 (ppm)” value is on record as 78 ppm. For the same compound, the pest or weed control at 15.625 g/ha in the experiment with weeds [1] (setting [4]), in the experiment on weeds [1] (setting [5]), with weeds [1] (setting [6]), in the experiment on weeds [1] (setting [7]), in the experiment with weeds [1] (setting [8]) and in the experiment with weeds [1] (setting [9]) was 0% in each case. Further, the pest or weed control at 15.625 g/ha in the experiment with weeds [2] (BRAPL) was 10%; in the experiment with weeds [2] (PANMI), 5%; with weeds [2] (SIDSP) it was 5%; in the experiment with weeds [2] (Digitaria sanguinalis, DIGSA), 0%; in the experiment with weeds [2] (Echinochloa crus-galli, ECHCG), 2%; in the experiment on weeds [2] (Setaria faberi, SETFA), 1%. Further, the pest or weed control at 62.5 g/ha is 5% in the experiment on weeds [1] (setting [4]); 0% in the experiment with weeds [1] (setting [5]); 0% in the experiment on weeds [1] (setting [6]); 0% with weeds [1] (setting [7]); 15% with weeds [1] (setting [8]); 10% in the experiment on weeds [1] (setting [9]). Further, the pest or weed control at 62.5 g/ha in the experiment on weeds [2] (BRAPL) worked out at 30%; with weeds [2] (PANMI), 40%; with weeds [2] (SIDSP), 40%; in the experiment on weeds [2] (Digitaria sanguinalis, DIGSA), 2%; in the experiment with weeds [2] (Echinochloa crus-galli, ECHCG), 15%; with weeds [2] (Setaria faberi, SETFA), 30%. Also, the pest or weed control at 250 g/ha in the experiment on weeds [1] (setting [4]) was 50%; in the experiment with weeds [1] (setting [5]) it was 40%; with weeds [1] (setting [6]), 0%; with weeds [1] (setting [7]), 0%; with weeds [1] (setting [8]), 60%; in the experiment with weeds [1] (setting [9]) it was 45%. The pest or weed control at 250 g/ha stood at 70% in the experiment on weeds [2] (BRAPL); 70% with weeds [2] (PANMI); 50% with weeds [2] (SIDSP); 40% in the experiment on weeds [2] (Digitaria sanguinalis, DIGSA); 50% with weeds [2] (Echinochloa crus-galli, ECHCG); 65% in the experiment on weeds [2] (Setaria faberi, SETFA).
As for `Cn1c(=O)c(-c2c(F)ccc(Br)c2Cl)c(O)c2nccnc21` [Compound 2.5], the “Estimated IC50 (ppm)” value on Arabidopsis HST (setting [3]) is listed as 48* ppm. Moreover, on Chlamydomonas HST, the “Chlamydomonas. HST % I at 10 ppm” value was 70% and the “Chlamydomonas. HST % I at 100 ppm” value is on record as 90%.
